Numbers after ± are expanded uncertainties.
Legend:
[1] = Crystal; DTA
[2] = Molar enthalpy of transition or fusion; settings: Crystal; DSC
[3] = molar enthalpy of vaporization or sublimation; settings: 298.15 K, Static calorimetry

SMILES | Normal melting temperature [1] [°C] | Molar enthalpy of transition or fusion [2] [kcal/mol] | molar enthalpy ([3]; Crystal) [kcal/mol] | molar enthalpy ([3]; Liquid) [kcal/mol]
N[C@H]1CC[C@H](N)CC1 [trans-1,4-cyclohexanediamine] | 69.0 ± 0.5 | 6.45 ± 0.167 | 25.1 ± 0.382 | 
N[C@H]1CC[C@@H](N)CC1 [cis-1,4-cyclohexanediamine] |  |  |  | 14.9 ± 0.454

Reference: the NIST ThermoML archive (doi:10.1016/j.jct.2007.06.015)
